The values below come from patent US20100099698A1, “Compositions for Improving Skin Conditions Comprising Matrine or Its Oxidized Derivatives” (Biospectrum Inc., priority 2007, published 2010).

One assay has as its system B16 mouse melanoma cells. As to the kind of experiment: Inhibition of melanin production in melanoma cells. The class given is cell-based. Conditions: 72 h, 100 μM, 3 days, read-out: Inhibitory rate of melanin production (%). On the procedure: After measuring the inhibition of melanin production by matrine and oxymatrine using B16 mouse melanoma cells (Korean Cell Line Bank), the measurement was compared with that for the inhibition of melanin production by arbutin, known as a melanin production inhibitor.
B16 mouse melanoma cells F10 (Korean Cell Line Bank) were seeded into each well of a 6-well plate (1×10^5 cells/well) in DMEM (Dulbecco's modified Eagle's media) containing 10% FBS (fetal bovine serum) and the cells were cultured to about more than 80% confluence by incubating in a CO2 incubator under conditions of 37° C. and 5.0% CO2. After cultivation, the medium was removed and samples were replaced in medium diluted at suitable concentration, followed by incubating for 3 days under conditions of 37° C. and 5.0% CO2. […] The cells removing medium were washed with PBS (phosphate buffer saline) and treated with trypsin to collect cells. Number of the collected cells was calculated using hematocytometer (Tiefe Depth Profondeur 0.100 mm, Paul Marienfeld GmbH & Co. KG, D.E), centrifuged at 5,000 to 10,000 rpm for 10 min and the supernatant was eliminated, thereby obtaining pellets. This cell pellets were dried at 60° C., 100 μl of 1M NaOH containing 10% DMSO was added to thereto, and intracellular melanin was obtained in incubator at 60° C. Then, the cell solution was measured for absorbance at 490 nm using microplate reader (Bio-Tek ELx8081U, U.S) and the amount of melanin per cell constant number was estimated.

The target of another assay is T1, tyrosinase (Mus musculus, UniProt P11344).
T1 construct: This cell pellets were lysated using lysis buffer, centrifuged at 12,000 rpm for 10 min and the supernatant was collected; endogenous in cells; host or cells: B16 F1 mouse melanoma cells (Korean Cell Line Bank)
T1 sequence (P11344 19-533): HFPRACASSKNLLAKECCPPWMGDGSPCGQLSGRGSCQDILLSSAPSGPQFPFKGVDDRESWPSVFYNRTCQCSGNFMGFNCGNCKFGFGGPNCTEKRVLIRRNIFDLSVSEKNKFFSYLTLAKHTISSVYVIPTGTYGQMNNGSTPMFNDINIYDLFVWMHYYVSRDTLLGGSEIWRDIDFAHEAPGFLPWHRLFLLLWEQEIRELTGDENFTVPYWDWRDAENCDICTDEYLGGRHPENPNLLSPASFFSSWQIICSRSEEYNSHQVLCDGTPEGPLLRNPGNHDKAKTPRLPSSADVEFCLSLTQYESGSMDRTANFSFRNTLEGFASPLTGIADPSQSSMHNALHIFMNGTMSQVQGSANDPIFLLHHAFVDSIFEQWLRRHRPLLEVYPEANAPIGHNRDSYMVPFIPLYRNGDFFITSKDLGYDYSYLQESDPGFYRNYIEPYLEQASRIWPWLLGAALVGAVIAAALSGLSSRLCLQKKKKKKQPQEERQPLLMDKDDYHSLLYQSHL
Put plainly: Inhibition of intracellular tyrosinase activity in melanoma cells. Format: cell-based, Murine. Conditions: B16-F1; 100 μM, 3 days, B-16 F1 cells; read-out: Inhibitory rate of intracellular tyrosinase activity (%). How it is done: After measuring the inhibition of melanin production by matrine and oxymatrine using B16 mouse melanoma cells (Korean Cell Line Bank), the measurement was compared with that for the inhibition of intracellular tyrosinase activities by arbutin, known as a melanin production inhibitor.
Murine melanoma (B-16 F1) cells were seeded into each well of a 6-well plate (1×10^5 cells/well) in DMEM containing 10% FBS (fetal bovine serum) and the cells were cultured to about more than 80% adherence by incubating in a CO2 incubator under conditions of 37° C. and 5.0% CO2. After cultivation, the medium was removed and samples were replaced in medium diluted at suitable concentration, followed by incubating for 3 days under conditions of 37° C. and 5.0% CO2. […] The cells removing medium were washed with PBS (phosphate buffer saline) and treated with trypsin to collect cells. Number of the collected cells was calculated using hematocytometer, centrifuged at 5,000 to 10,000 rpm for 10 min and the supernatant was eliminated, thereby obtaining pellets. This cell pellets were lysated using lysis buffer, centrifuged at 12,000 rpm for 10 min and the supernatant was collected. Then, the cell solution was measured for absorbance at 492 nm using microplate reader and the activity of tyrosinase per cell constant number was estimated.

The next assay concerns pigmentation of skin. As to the kind of experiment: Skin whitening of UV-induced pigmentation, chromameter L* value. Format: in vivo, brown guinea pigs. The following applies: 1.0 %, topical once or twice a day for 50 days, UV-pigmented abdominal skin. How it is done: A whitening effect of matrine and oxymatrine was measured using brown guinea pigs (Charles River Laboratories, Inc.), known to increase its pigmentation upon exposure to ultraviolet light, like in humans. To cause pigmentation in the brown guinea pig by ultraviolet (UV), aluminum foil with square windows of 3×3 cm^2 was adhered to hair-removed abdominal skin of brown guinea pig, and then UV light was irradiated thereon with a SE lamp (wavelength 290-320 nm, Toshiba) (total irradiation energy=1350 mJ/cm^2). After UV irradiation, the aluminum foil was removed and samples (matrine, oxymatrine or albutin) were applied as the following method. […] From the maximum, samples were applied. Applications performed once or twice a day for 50 days. […] The control with only the solvent was applied to another site. Occurrence of cumulative irritation also was examined. The degree of pigmentation of skin was determined using a chromameter (CR2002, MINOLTA, JP) to estimate the effects of applied samples. L*a*b* colorimetric system was used to classify color and L* value was used as standard in the present invention. The L* value was corrected using white board standard and was measured more than five times at one site, repeatedly. Pigmentation was evenly distributed. Skin color differences (ΔL*) between application initial point and application terminal point were obtained and then using these values, their effects of the applied samples were estimated. ΔL*=L* value at […] after application-L* value at application initial day. Equation 1 ΔL* values were obtained both at sample application site and control application site and compared, whereby the effects of the whitening substances can be estimated.

In the case of `OC[C@H]1O[C@@H](Oc2ccc(O)cc2)[C@H](O)[C@@H](O)[C@@H]1O` [Albutin, arbutin, reference compound], the inhibition at 100 µM in the assay on B16 mouse melanoma cells is 26%; on tyrosinase, 29%. Also, the “Whitening effects (ΔL)” value in the assay with pigmentation of skin is 0.49.
